Test results reported in paper PMC10907358, “Identification of oleic acid as an endogenous ligand of GPR3” (Cell Research, 2024).
Where “and” joins values, the source holds several entries; their conditions need not be identical. Identical values can stand only once. Entries after “also recorded” stand apart in the source; their conditions may differ. Values belong to the compound of their own block, whether it stands above or below them.

Legend:
GPR3 [1] = biological target: T1, GPR3 (Homo sapiens, UniProt P46089); test: Inhibition of OA-induced GPR3 activation, GloSensor cAMP assay in GPR3 stably expressing AD293 cell line; type: cell-based; conditions: OA concentration fixed at 300 μM; read-out: IC50 of OA-induced receptor activation
T1 construct: expressed in transfected cells
T1 sequence (P46089 whole entry): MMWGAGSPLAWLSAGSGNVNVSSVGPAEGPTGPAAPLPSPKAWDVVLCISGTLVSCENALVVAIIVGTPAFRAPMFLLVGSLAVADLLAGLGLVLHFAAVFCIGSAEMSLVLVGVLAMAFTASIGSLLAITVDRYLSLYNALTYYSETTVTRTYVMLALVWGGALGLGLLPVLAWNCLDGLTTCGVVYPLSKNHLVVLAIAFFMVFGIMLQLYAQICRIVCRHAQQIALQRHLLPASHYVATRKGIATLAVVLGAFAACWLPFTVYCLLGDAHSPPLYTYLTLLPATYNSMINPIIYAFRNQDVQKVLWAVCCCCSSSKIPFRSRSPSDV
Procedure: (§1) The GloSensor cAMP assay was performed according to the instructions of Promega. AD293 cells were split into 6-well plate (300,000 cells/mL) and then transfected with the pGloSensor™-22F cAMP plasmid and pcDNA3-GPR3 plasmid by Lipofectamine 2000, at a ratio of 2:1 (μL:μg). 24 h after transfection, cells were split into 96-well plate for another 24 h incubation. After removal of cell medium, 90 μL of 3% v/v (the GloSensor cAMP reagent vs serum-free medium) substrate was added into each well. After 2 h incubation at RT, background measurements were taken, and then 10 μL 10× stock compounds were added for the second measurements of ligand activation via EnVision 2105 (PerkinElmer). Relative cAMP level was calculated by the cAMP level after addition of ligand divided by the cAMP level before addition of ligand (basal level). Stock FAs (i.e., 10–50 mM) were solubilized in DMSO, then diluted in cell culture buffer to designated concentrations and sonicated to ensure that they were evenly distributed in the buffer before being added to cells.
(§2) AD293 cells were split into 6-well plate (300,000 cells/mL), and then transfected with the pGloSensor™-22F cAMP plasmid and the pcDNA6-GPR3-3× FLAG plasmid (WT receptor or the mutants, F120A^3.36, W260A^6.48, L283F^7.39, A201W^5.46, Y280A^7.36, H96A^2.60 and H96A^2.60/Y280A^7.36) by Lipofectamine 2000 at a ratio of 2:1 (μL:μg). […]

GPR3 [2] = biological target: T1, GPR3; test: GloSensor cAMP assay in GPR3 stably expressing AD293 cell line (agonist mode); type: cell-based; conditions: for Emax compared to Emax of OA: cAMP assay
Procedure: as §1
AD293 cells were split into 6-well plate (300,000 cells/mL), and then transfected with the pGloSensor™-22F cAMP plasmid and the pcDNA6-GPR3-3× FLAG plasmid (WT receptor or the mutants, F120A^3.36, W260A^6.48, L283F^7.39, A201W^5.46, Y280A^7.36, H96A^2.60 and H96A^2.60/Y280A^7.36) by Lipofectamine 2000 at a ratio of 2:1 (μL:μg). Geneticin (2 mg/mL) and blasticidin (20 μg/mL) were used to select colonies that stably express both GPR3 and GloSensor 22F. The cell culture medium containing antibiotics was changed every 2 days till well-separated colonies appeared. Then individual single colony was picked by a small piece of sterilized filter paper soaked with trypsin and separately cultured in a single well of 24-well plate. At least 24 candidate colonies were selected for each mutant and WT. After several days of culture, each colony was triplicated. One of the triplicates was used for western blot analysis, another for the GloSensor cAMP assay, and the remaining one was stored for staining. The colonies with top scores in both expression (western blot) and functional assay were selected as the representative colonies for each mutant or WT for further analysis.

GPR6 = biological target: T2, GPR6 (Homo sapiens, UniProt P46095); test: GloSensor cAMP assay in GPR6 stably expressing AD293 cell line; type: cell-based; conditions: lipid concentration 300 μM
T2 construct: FLAG; expressed in transfected cells
T2 sequence (P46095 whole entry, species assumed): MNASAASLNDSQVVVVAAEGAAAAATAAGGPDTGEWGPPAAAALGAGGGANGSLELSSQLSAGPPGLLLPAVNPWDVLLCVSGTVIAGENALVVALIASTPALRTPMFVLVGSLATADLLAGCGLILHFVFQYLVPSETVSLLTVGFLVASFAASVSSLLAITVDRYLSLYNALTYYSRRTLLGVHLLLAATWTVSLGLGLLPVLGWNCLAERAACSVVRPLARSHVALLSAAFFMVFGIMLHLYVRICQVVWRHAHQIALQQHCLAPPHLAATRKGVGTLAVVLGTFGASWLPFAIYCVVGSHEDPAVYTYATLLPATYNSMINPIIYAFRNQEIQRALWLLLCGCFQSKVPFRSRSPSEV

GPR120 = tested on: GPR120; parameters: method as in PMID 36862765; conditions: cited from earlier work
[3] = tested on: Gs/cAMP/PKA signaling in iBAT; test: Ex vivo iBAT of WT mice, p-PKA substrate immunoblot; type: cell-based, mouse; conditions: up to 4 h
Procedure: iBAT was isolated from C57BL/6N mice at 4-6 weeks old and cut into 10 mg pieces. […] Another group of iBAT pieces were incubated in DMEM medium at 4 °C, and treated with different doses of OA (0 mM, 1 mM, 5 mM) for 4 h. OA (Sigma, O1008) was dissolved in serum-free DMEM (Gibco, high glucose, 12100046) by using an ultrasonic cleaner at 40 °C for 10 min.

GPR3 A201W mutant = biological target: T3, GPR3 A201W mutant (Homo sapiens, UniProt P46089, A201W); test: OA dose-response, GloSensor cAMP assay, AD293 stably expressing GPR3 A201W mutant; type: cell-based; conditions: Table S3, A201W
T3 construct: expressed in transfected cells
T3 sequence (P46089 whole entry A201W): as the sequence (P46089 whole entry) above, with A201W counted along it
Procedure: as §1, §2

GPR3 H96A mutant = biological target: T4, GPR3 H96A mutant (Homo sapiens, UniProt P46089, H96A); test: OA dose-response, GloSensor cAMP assay, AD293 stably expressing GPR3 H96A mutant; type: cell-based; conditions: Table S3, H96A
T4 construct: expressed in transfected cells
T4 sequence (P46089 whole entry H96A): as the sequence (P46089 whole entry) above, with H96A counted along it
Procedure: as §1, §2

[4] = tested on: Gs/cAMP/PKA signaling in Gpr3 KO iBAT; test: Ex vivo iBAT of Gpr3 KO mice, p-PKA substrate immunoblot; type: cell-based, mouse; conditions: OA 1 mM, 4 h
Procedure: iBAT was isolated from C57BL/6N mice at 4–6 weeks old and cut into 10 mg pieces. 10 mg iBAT was further cut into four pieces.[67] iBAT pieces were incubated in Dulbecco’s modified eagle medium (DMEM) at 4 °C, and treated with OA (1 mM) for different times (0 h, 1 h, 2 h, and 4 h). Another group of iBAT pieces were incubated in DMEM medium at 4 °C, and treated with different doses of OA (0 mM, 1 mM, 5 mM) for 4 h. OA (Sigma, O1008) was dissolved in serum-free DMEM (Gibco, high glucose, 12100046) by using an ultrasonic cleaner at 40 °C for 10 min. p-(S/T)PKA substrate and GAPDH levels were measured by immunoblotting, and quantified by densitometry using ImageJ. iBAT was also isolated from WT and Gpr3 KO mice at 4–6 weeks old and cut into 10 mg pieces. 10 mg iBAT was further cut into four pieces. iBAT pieces were incubated in DMEM medium at 4 °C, and treated with or without OA (1 mM) for 4 h. p-(S/T)PKA substrate and GAPDH levels were measured by immunoblotting, and quantified by ImageJ.
To generate Gpr3 complete KO mice rapidly, we performed one-step complete knockout based on CRISPR/Cas9 systems, which was described previously.[68] Briefly, four adjacent single-guide RNAs (sgRNAs) (spaced 50–100 bp apart; sgRNA1: […]; sgRNA2: […]; sgRNA3: […]; sgRNA4: […]) that target key exon of Gpr3 were designed. […]

GPR3 Y280A mutant = biological target: T5, GPR3 Y280A mutant (Homo sapiens, UniProt P46089, Y280A); test: OA dose-response, GloSensor cAMP assay, AD293 stably expressing GPR3 Y280A mutant; type: cell-based; conditions: Table S3, Y280A
T5 construct: expressed in transfected cells
T5 sequence (P46089 whole entry Y280A): as the sequence (P46089 whole entry) above, with Y280A counted along it
Procedure: as §1, §2

GPR3 L283F mutant = biological target: T6, GPR3 L283F mutant (Homo sapiens, UniProt P46089, L283F); test: OA dose-response, GloSensor cAMP assay, AD293 stably expressing GPR3 L283F mutant; type: cell-based; conditions: Table S3, L283F
T6 construct: expressed in transfected cells
T6 sequence (P46089 whole entry L283F): as the sequence (P46089 whole entry) above, with L283F counted along it
Procedure: as §1, §2

GPR12 = biological target: T7, GPR12 (Homo sapiens, UniProt P47775); test: GloSensor cAMP assay in GPR12 stably expressing AD293 cell line; type: cell-based; conditions: lipid concentration 300 μM
T7 construct: FLAG; expressed in transfected cells
T7 sequence (P47775 1-334): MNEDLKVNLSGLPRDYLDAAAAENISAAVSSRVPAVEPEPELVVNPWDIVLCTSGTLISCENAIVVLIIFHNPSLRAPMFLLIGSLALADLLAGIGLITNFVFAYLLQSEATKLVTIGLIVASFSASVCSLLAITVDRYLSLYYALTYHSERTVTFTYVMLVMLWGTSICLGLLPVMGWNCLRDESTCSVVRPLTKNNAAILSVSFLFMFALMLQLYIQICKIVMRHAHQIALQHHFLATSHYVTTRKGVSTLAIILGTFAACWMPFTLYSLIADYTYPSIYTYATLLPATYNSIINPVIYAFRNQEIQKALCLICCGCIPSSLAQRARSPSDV

[5] = parameters: method as in PMID 7722695, PMID 18059405; conditions: feeding rats with OA; cited from earlier work
GPR3 H96A/Y280A mutant = biological target: T8, GPR3 H96A/Y280A mutant (Homo sapiens, UniProt P46089, H96A/Y280A); test: OA dose-response, GloSensor cAMP assay, AD293 stably expressing GPR3 H96A/Y280A mutant; type: cell-based; conditions: H96A/Y280A stable line
T8 construct: expressed in transfected cells
T8 sequence (P46089 whole entry H96A/Y280A): as the sequence (P46089 whole entry) above, with H96A, Y280A counted along it
Procedure: as §1, §2

GPR3 W260A mutant = biological target: T9, GPR3 W260A mutant (Homo sapiens, UniProt P46089, W260A); test: OA dose-response, GloSensor cAMP assay, AD293 stably expressing GPR3 W260A mutant; type: cell-based; conditions: W260A stable line
T9 construct: expressed in transfected cells
T9 sequence (P46089 whole entry W260A): as the sequence (P46089 whole entry) above, with W260A counted along it
Procedure: as §1, §2

GPR3 F120A mutant = biological target: T10, GPR3 F120A mutant (Homo sapiens, UniProt P46089, F120A); test: OA dose-response, GloSensor cAMP assay, AD293 stably expressing GPR3 F120A mutant; type: cell-based; conditions: Table S3, F120A
T10 construct: expressed in transfected cells
T10 sequence (P46089 whole entry F120A): as the sequence (P46089 whole entry) above, with F120A counted along it
Procedure: as §1, §2

[6] = Table S2, relative cAMP level, at 500 μM (FA 12:0, 16:1, 18:0, OEA 18:1, OLM 18:1), 450 μM (FA 18:1), 400 μM (FA 16:0), 300 μM (FA 22:0, 18:2), 100 μM (FAME 18:0, FAEE 18:0, lysophospholipids), 3 μM (LTB4)
[7] = cAMP induction, GPR3 stably expressing AD293
[8] = WT iBAT at 4 °C, lipid 1 mM (OA also 5 mM)
[9] = Table S3, WT receptor stable line, OA dose-response

Structure (SMILES): CC(C)Oc1cc(Cl)ccc1CNc1cc(-c2ccccc2)nc2ncnn12 [AF64394]
- IC50 (GPR3 [1]): 0.171 µM

Structure (SMILES): CCCCCCCCCCCCCCCCCCCCCC(=O)O [BEH, behenic acid]
- cAMP induction activity (in words) (GPR3 [2]; GPR3 stably expressing AD293): no activity at all; also recorded: failed to activate the receptor
- maximum response (GPR3 [2]; [6]): 1.0

Structure (SMILES): c1ccc2c(c1)[I+]c1ccccc1-2 [DPI, diphenyleneiodonium chloride]
- Emax compared to Emax of OA (GPR3 [2]): higher Emax

Structure (SMILES): CCCCCCCC/C=C\CCCCCCCC(=O)O [OA, oleic acid]
- EC50 (GPR3 A201W mutant): 291 µM
- maximum response (GPR3 A201W mutant): 157.9
- EC50 (GPR3 H96A mutant): 255 µM
- maximum response (GPR3 H96A mutant): 83.68
- induction of Gs/cAMP/PKA signaling by OA [4]: completely blocked
- EC50 (GPR3 Y280A mutant): 322 µM
- maximum response (GPR3 Y280A mutant): 61.91
- maximum response (GPR3 L283F mutant): 39.13
- GPR12 activation (in words) (GPR12): strongest effect on GPR12 activation
- thermogenesis and body weight [5]: induces thermogenesis and reduces body weight
- Emax compared to WT receptor (in words) (GPR3 H96A/Y280A mutant): lower Emax than the WT receptor
- maximum response (GPR3 [2]; [6]): 164.1
- EC50 (GPR3 [2]; [9]): 293 µM
- maximum response (GPR3 [2]; [9]): 186.6
- EC50 (GPR3 [2]; [7]): 299 µM and 300 µM
- EC50 (GPR120): 40.6 µM
- Gs/cAMP/PKA signaling (phosphorylation of PKA substrates) [3, 8]: robust increase of Gs/cAMP/PKA signaling; also recorded: substantially increased Gs/cAMP/PKA signaling
- Gs/cAMP/PKA signaling (phosphorylation of PKA substrates) ([3]; WT iBAT at 37 °C, OA 1 mM, 5 mM): to a lesser extent than in the samples treated at 4 °C
- response to OA (in words) (GPR3 W260A mutant): completely lost their response to OA
- EC50 (GPR3 F120A mutant): 252 µM
- maximum response (GPR3 F120A mutant): 23.67

The next lines start with results.

- maximum response (GPR3 [2]; [6]): 0.6
Structure (SMILES): CCCCCCCCCCCCCCCCCC(=O)OCC [ETS, ethyl stearate]
- cAMP induction activity (in words) (GPR3 [2]; GPR3 stably expressing AD293): completely abolished receptor activation; also recorded: failed to activate the receptor

- GPR6 activation (in words) (GPR6): strongly activated GPR6
- cAMP induction activity (in words) (GPR3 [2]; GPR3 stably expressing AD293): fully activate GPR3
- maximum response (GPR3 [2]; [6]): 204.5
- Emax compared to Emax of OA (GPR3 [2]): higher Emax than OA
- EC50 (GPR3 [2]; [7]): 320 µM
Structure (SMILES): CCCCCCCCCCCC(=O)O [LAU, lauric acid]

- maximum response (GPR3 [2]; [6]): 2.9
Structure (SMILES): CCCCC/C=C\C/C=C\CCCCCCCC(=O)O [LIN, Linoleic acid]
- cAMP induction activity (in words) (GPR3 [2]; GPR3 stably expressing AD293): failed to activate the receptor; also recorded: almost no activity
- EC50 (GPR120): 57.4 µM
- Gs/cAMP/PKA signaling (phosphorylation of PKA substrates) [3, 8]: neither STE nor LIN induced Gs/cAMP/PKA signaling

- cAMP induction activity (in words) (GPR3 [2]; GPR3 stably expressing AD293): failed to activate GPR3
- maximum response (GPR3 [2]; [6]): 0.8
Structure (SMILES): CCCCC/C=C\C[C@@H](O)/C=C/C=C/C=C\[C@@H](O)CCCC(=O)O [LTB4, leukotriene B4]

- maximum response (GPR3 [2]; [6]): 0.9
Structure (SMILES): CCCCCCCCCCCCCCCCCC(=O)OC [MES, methyl stearate]
- cAMP induction activity (in words) (GPR3 [2]; GPR3 stably expressing AD293): completely abolished receptor activation; also recorded: failed to activate the receptor
